Assay results: paper PMC9967275, “Screening the Pathogen Box to Discover and Characterize New Cruzain and TbrCatL Inhibitors” (Pathogens, 2023)

Key:
[1] = molecular target: cruzain (Trypanosoma cruzi, UniProt P25779); test: biochemical; details: for Cruzain 0’ Inhibition / Cruzain 10’ Inhibition: sheet "Screening results"
Procedure, shortened: (§1)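 Recombinant enzymes assayed by Z-Phe-Arg-AMC cleavage at 25 °C, fluorescence 340/440 nm over 5–7 min, with 10 min or no enzyme–compound preincubation.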

[2] = molecular target: T1, TbrCatL (Trypanosoma brucei rhodesiense, UniProt Q95PM0); test: TbrCatL enzymatic inhibition assay (cleavage of fluorogenic substrate Z-FR-AMC); type: biochemical; details: for TbrCatL 0’ Inhibition / TbrCatL 10’ Inhibition: sheet "Screening results"
T1 construct: Conor Caffrey (University of California San Diego)
Procedure, shortened: as §1

[3] = 0’ (no pre-incubation), sheet Screening results
[4] = 10’ (pre-incubation), sheet Screening results
[5] = 0’ (pre-incubation time), Pathogen Box screening results
[6] = 10’ (pre-incubation time), Pathogen Box screening results
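Further: at 5 µM compound concentration.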

Chain of cruzain (P25779 123-337 limits assumed): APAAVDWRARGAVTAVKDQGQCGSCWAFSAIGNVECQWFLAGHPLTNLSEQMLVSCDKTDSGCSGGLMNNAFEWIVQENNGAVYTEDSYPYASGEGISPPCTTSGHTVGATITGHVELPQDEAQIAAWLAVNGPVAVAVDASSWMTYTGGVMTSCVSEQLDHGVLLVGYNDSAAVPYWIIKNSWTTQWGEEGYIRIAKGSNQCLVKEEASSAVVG
T1 sequence (Q95PM0 entry or part of it): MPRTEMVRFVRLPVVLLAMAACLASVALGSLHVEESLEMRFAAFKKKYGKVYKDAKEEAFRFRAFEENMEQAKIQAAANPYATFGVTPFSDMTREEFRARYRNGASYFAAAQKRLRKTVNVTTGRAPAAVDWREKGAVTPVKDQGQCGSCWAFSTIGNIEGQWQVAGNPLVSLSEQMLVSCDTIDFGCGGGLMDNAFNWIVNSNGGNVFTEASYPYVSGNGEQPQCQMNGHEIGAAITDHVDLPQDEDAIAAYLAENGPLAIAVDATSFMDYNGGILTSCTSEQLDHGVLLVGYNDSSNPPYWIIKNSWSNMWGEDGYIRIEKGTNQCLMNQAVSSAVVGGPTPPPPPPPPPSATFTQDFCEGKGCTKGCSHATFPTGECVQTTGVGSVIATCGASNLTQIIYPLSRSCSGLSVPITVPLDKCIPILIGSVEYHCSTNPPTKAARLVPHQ

Row | Compound | Cruzain 0’ Inhibition ([1]; 0’ (pre-incubation time)) [%] | Cruzain 10’ Inhibition ([1]; 10’ (pre-incubation time)) [%] | TbrCatL 0’ Inhibition ([2]; 0’ (pre-incubation time)) [%] | TbrCatL 10’ Inhibition ([2]; 10’ (pre-incubation time)) [%] | Cruzain Inhibition 0’ [1, 3] [%] | Cruzain Inhibition 10’ [1, 4] [%] | TbrCatL Inhibition 0’ [2, 3] [%] | TbrCatL Inhibition 10’ [2, 4] [%] | other results
1 | c1ccc(Oc2ccc(-c3cc(N4CCNCC4)[nH]n3)cc2)cc1 [MMV687706] | 2.4 | 4 | -6 | 23 |  |  |  |  | 
2 | O=C1O[C@@H](CO)CN1c1cc(F)c(C2=CCN(Cc3ccccc3)CC2)c(F)c1 [MMV687729] | -2 | 6 | -0.7 | -6.5 |  |  |  |  | 
3 | CCCCOC(=O)Nc1cc2[nH]c(C3CCCCC3)nc2cc1N1CCCC1 [MMV687730] | 12 | 4.4 | 19 | 12 |  |  |  |  | 
4 | Cc1cc(OCC(=O)NCc2ccccc2)c2cc(Br)ccc2n1 [MMV687747] |  |  |  |  | 6.4 | 6 | 2 | -0.3 | 
5 | c1ccc(C[C@@H]2CN(c3nccc(Oc4ccc(-n5ccnc5)cc4)n3)CCN2)cc1 [MMV687749] |  |  |  |  | 14 | 13 | 6.4 | 5.6 | 
6 | c1ccc(Oc2ccc(-c3cc(C4CCOCC4)[nH]n3)cc2)cc1 [MMV687762] |  |  |  |  | 9 | 7 | 17 | 12 | 
7 | Cc1cnc(N2CCN[C@@H](Cc3ccccc3)C2)nc1Oc1ccc(-n2ccnc2)cc1 [MMV687765] | 4.4 | 13 | 5 | 8.5 |  |  |  |  | 
8 | CC1(C)OB(O)c2ccc(C3=NOC(c4cc(Cl)c(F)c(Cl)c4)(C(F)(F)F)C3)cc21 (centres unmarked) [MMV687775] |  |  |  |  | 13 | -4 | -0.5 | -8 | 
9 | Cc1cc(C2=NOC(c3cc(Cl)c(F)c(Cl)c3)(C(F)(F)F)C2)ccc1C(=O)NCc1ccc2c(c1)C(C)(C)OB2O (centres unmarked) [MMV687776] |  |  |  |  | 25 | 17 | -0.1 | -4.5 | 
10 | CC1(C)Cc2c(c(N3CCOCC3)nc3snc(Br)c23)CO1 [MMV687794] | 8 | 27 | 4.7 | 25 |  |  |  |  | 
11 | NCCC(O)C(=O)N[C@@H]1C[C@H](N)[C@@H](OC2O[C@H](CN)[C@@H](O)[C@H](O)[C@H]2O)[C@H](O)C1OC1O[C@H](CO)[C@@H](O)[C@H](N)[C@H]1O (some centres unmarked) [MMV687796] |  |  |  |  |  |  |  |  | Cruzain Inhibition 0’ [1, 5]: -0.8%; Cruzain Inhibition 10’ [1, 6]: -3.6%; TbrCatL Inhibition 0’ [2, 5]: -9.5%; TbrCatL Inhibition 10’ [2, 6]: -6%
12 | C[C@H]1COc2c(N3CCN(C)CC3)c(F)cc3c(=O)c(C(=O)O)cn1c23 [MMV687798] | 4.7 | 6 | -4.6 | -1.6 |  |  |  |  | 
13 | CC(C)N=c1cc2n(-c3ccc(Cl)cc3)c3ccccc3nc-2cc1Nc1ccc(Cl)cc1 [MMV687800] |  |  |  |  | 23 | 10 | 1.1 | 3 | 
14 | CC[C@H](CO)NCCN[C@H](CC)CO [MMV687801] |  |  |  |  | -4.5 | 0.4 | 7 | 0.4 | 
15 | CC(=O)NC[C@@H]1CN(c2ccc(N3CCOCC3)c(F)c2)C(=O)O1 [MMV687803] |  |  |  |  | -8 | -4 | 3.8 | -0.1 | 
16 | O=C(Nc1ccc(C(F)(F)F)c(C(F)(F)F)c1)c1cc(Cl)ccc1O [MMV687807] | -0.3 | 6 | -4 | -5 |  |  |  |  | 
17 | O=C1O[C@@H](COc2ccon2)CN1c1cc(F)c(C2=CCN(Cc3ccccc3)CC2)c(F)c1 [MMV687813] | 2.7 | 23 | 5.3 | -1 |  |  |  |  | 
18 | Cc1cccc(-c2nc(Nc3ccncn3)c3sccc3n2)n1 [MMV688122] |  |  |  |  | -1.4 | -17 | 19 | -8 | 
19 | CCc1ccc(S(=O)(=O)Nc2cc(CN3CCN(CCC(C)C)CC3)ccc2C)cc1 [MMV688124] | -1.8 | 3 | -3.3 | 1 |  |  |  |  | 
20 | CCCc1ccc(S(=O)(=O)Nc2ccc(CN3CCN(CC4CC4)CC3)cc2)cc1 [MMV688125] | 4.4 | 9 | -2.3 | -4.7 |  |  |  |  | 
